Experimental data from US20150141523A1, “COMPOUNDS FOR USE IN THE TREATMENT OF AUTOIMMUNE INFLAMMATORY DISEASE” (Venantius Limited, priority 2012, published 2015).

How the values were obtained:
CD-1 mice = experiment: Sheep red blood cell (SRBC) delayed-type hypersensitivity mouse paw swelling; assay type: in vivo; conditions: 30 mg/kg; vehicle 89%
Description: The sheep red blood cells were first cleaned and counted as follows. 5 mls of the SRBC were spun down in a centrifuge at 3000 rpm for 10 minutes. The supernatant was removed and phosphate buffered saline (PBS), pH 7.4 added to the pellet. The pellet was mixed with the PBS buffer (5 mls) and spun down in a centrifuge at 3000 rpm for 10 minutes. The pellet was washed twice more with PBS buffer as described above. The pellet was then reconstituted in 5 mls of PBS buffer following the final wash. 10 μl of a 1 in 200 dilution of the sample of reconstituted sheep red blood cells (in trypan blue stain) was used to fill the counting chamber of a haemacytometer and the number of sheep red blood cells counted.
Male CD-1 mice (30-40 gms) were sensitised on day zero. The negative control group was sensitised with 100 μl PBS intraperitoneally (i.p.), while the positive control group and drug treated groups were sensitised with 1×10^7 SRBC (100 μl i.p.).
Animals were challenged 5 days later with SRBC. The SRBC were cleaned and counted as described above. Animals anaesthetised with halothane were challenged s.c. by injecting SRBC (3×10^8 cells in 20 μl) into the right hind paws and PBS (20 μl) into the left hind paws. […]
The difference in paw swelling between the saline-injected and SRBC-challenged contralateral paw of each mouse was calculated by measuring paw volume (mls) using a plethysmometer. […]

Balb/C mice [1] = experiment: 5% DSS-induced murine colitis model; assay type: in vivo, mouse; conditions: for inhibition of DAI in DSS-induced colitis: 5% DSS colitis (FIG. 9)
[2] = test system: IL-2 secretion from Jurkat T cells; experiment: IL-2 secretion from activated Jurkat T cells (ELISA); assay type: cell-based, human; conditions: for IL-2 [ ]pg/ml (1) / IL-2 % Control (1): experiment (1); for IL-2 % Control (1) / IL-2 % Control (2) / IL-2 % Control (3): relative to DMSO 0.1%; for IL-2 [ ]pg/ml (2) / IL-2 % Control (2): experiment (2); for IL-2 [ ]pg/ml (3) / IL-2 % Control (3): experiment (3)
Description: The T cell line Jurkat 6.1 (ATCC) was used. Cells were pre-treated for 30 min with 1 μM or 10 μM of the respective compound and then stimulated with plate-bound anti-CD3 (BD Pharmingen) and anti-CD28 (AnCell). DMSO was used as vehicle control. The immunosuppressive agent Cyclosporine A was used as a control for inhibition of IL-2 production. After 24 hs the supernatant was collected and IL-2 secretion was measured by ELISA.
Jurkat T cells were cultured in RMPI-1640 medium containing 10 % Foetal Bovine Serum, Penicillin/Streptomycin and L-Glutamine in T-75cm2 flasks at 37° C. and 5 % CO2. Cells were seeded into new culture flasks at a density of 1-3×10^5 cells per ml and maintained at a density of 0.5−1×10^6 cells per ml.
(A) Anti-TCR/CD28-mediated activation of Jurkat cells: Experiments involving anti-TCR/CD28-mediated activation of Jurkat T lymphocytes were carried out on 24-well cell culture plates. The plates were coated with a 1/100 dilution of rabbit anti-mouse IgG in sterile PBS (1×) and incubated overnight at 4OC. Unbound antibody was aspirated and the wells were gently rinsed with warm sterile PBS. The PBS was aspirated and the wells were coated with a 1/100 dilution of anti-TCR antibody (OKT-3) and a 1/200 dilution of anti-CD28 antibody (both antibodies pre-mixed prior to addition to the plates) in sterile PBS. The plates were then incubated for 1-2 hours at 37° C. Unbound antibody was aspirated and the wells were gently rinsed with warm PBS. The PBS was left on the plate until the Jurkat cells were ready to be added to the plate. The Jurkat cells were harvested from the T-75cm2 cell culture flasks and resuspended at a density of 0.5×10^6 cells per ml. The compounds were dissolved at a specified stock concentration (see results section) and diluted to the required concentration by adding the drug to the cell suspension. The cells were then pre-incubated with the compounds or with an equivalent volume of drug vehicle control (DMSO) for 30 minutes prior to adding the cell suspension to the antibody-coated plates. Cyclosporine A (1 μM) was used as a positive control to inhibit IL-2 production from activated T cells and was preincubated with the 6 cells as described above in parallel. The cells were then incubated on the plates with the acti-TCR/CD28 antibodies for 24 hours at 37° C. and 5% CO2 in a humidified atmosphere. After 24 hours, the cell suspension was removed from the plates and the cells were pelleted by centrifugation. The cell culture supernatant was saved and analysed for secreted IL-2 by ELISA. The cell pellet was saved and cell viability was measured using Acridine Orange/Ethidium Bromide cell viability staining solution.
(B) PHA/PMA-mediated activation of Jurkat cells Jurkat cells were resuspended at a concentration of 0.5×10^6 cells per ml and the Pharmatrin compounds at the desired concentration or an equivalent volume of drug vehicle control (DMSO) were added to the cells and incubated for 30 minutes. Cyclosporine A (1 ∝M) was used as a positive control to inhibit IL-2 production from activated T cells and was preincubated with the cells as described above in parallel. PHA and PMA were added to the cell suspension (10 ∝g/ml and 10 ng/ml respectively) and the cells were plated onto uncoated 24-well plates. The cells were incubated on the plates for 24 hours at 37° C. and 5 % CO2 in a humidified atmosphere. After 24 hours, the cell suspension was removed from the plates and the cells were pelleted by centrifugation. The cell culture supernatant was saved and analysed for secreted IL-2 by ELISA.
The cell culture supernatants were analysed for IL-2 by ELISA (96-well plate format) using the Human IL-2 ELISA kit from R&D Systems Europe. This assay was carried out using the standard protocol outlined by the company. Samples and standards (recombinant human IL-2 provided by R&D Systems) were analysed in triplicate. […]

Balb/C mice [3] = experiment: Oxazolone contact hypersensitivity (CHS) mouse ear swelling; assay type: in vivo; conditions: P>0.05
Description: Female Balb/C mice (30-40 gms) were sensitised on day 0 with 20 μl of 2% oxazolone in acetone on each ear (10 μl on the inner and outer aspects of both ears). All mice were challenged on day 5 with 20 μl of 2% oxazolone in acetone only on the right ear; again, 10 μl on both the inner and outer aspects of the ear. Immediately following this, the mice were treated with test compound. The test compound was administered in exactly the same way as the oxazolone, with 10 μl on each side of the right ear. […] For the […] group, acetone was administered. All animals were killed 24 hrs later and the percentage increase in ear swelling was calculated. This was done in two ways. The thickness of the unchallenged left ear and the challenged right ear were measured using a micrometer caliper (μm). The increase in weight of both ears was also measured using a 5 mm biopsy punch (mgs). The percentage increase in oedema was then calculated for both weight and thickness by expressing the difference between the unchallenged left ear and the challenged right ear as a percentage of the left ear control.

Structure (SMILES): O[C@@H]1c2ccccc2C[C@]1(Cc1ccccc1)C1=Cc2ccccc2C1 (mixture of isomers) [Compound 5, (R,S and SR)2-Benzyl-2,3-dihydro-1H,1′H-2,2′-biinden-1-ol]
- SRBC paw swelling (CD-1 mice): 60%
- inhibition of DAI in DSS-induced colitis (Balb/C mice [1]): only 6 caused a significant
- IL2 release from Jurkat cells [2]: inhibited IL2 release
- IL-2 [ ]pg/ml (1) ([2]; 0.3 uM): 32.00 pg/mL
- IL-2 % Control (1) ([2]; 0.3 uM): 156.86%
- IL-2 [ ]pg/ml (2) ([2]; 0.3 uM): 87.25 pg/mL
- IL-2 % Control (2) ([2]; 0.3 uM): 133.61%
- IL-2 [ ]pg/ml (3) ([2]; 0.3 uM): 164.41 pg/mL
- IL-2 % Control (3) ([2]; 0.3 uM): 124.97%
- IL-2 [ ]pg/ml (1) ([2]; 1 uM): 21.85 pg/mL
- IL-2 % Control (1) ([2]; 1 uM): 107.11%
- IL-2 [ ]pg/ml (2) ([2]; 1 uM): 64.65 pg/mL
- IL-2 % Control (2) ([2]; 1 uM): 99.00%
- IL-2 [ ]pg/ml (3) ([2]; 1 uM): 127.84 pg/mL
- IL-2 % Control (3) ([2]; 1 uM): 97.18%
- IL-2 [ ]pg/ml (1) ([2]; 3 uM): 10.90 pg/mL
- IL-2 % Control (1) ([2]; 3 uM): 53.43%
- IL-2 [ ]pg/ml (2) ([2]; 3 uM): 83.25 pg/mL
- IL-2 % Control (2) ([2]; 3 uM): 60.20%
- IL-2 [ ]pg/ml (3) ([2]; 3 uM): 97.38 pg/mL
- IL-2 % Control (3) ([2]; 3 uM): 74.02%
- IL-2 [ ]pg/ml (1) ([2]; 10 uM): 8.75 pg/mL
- IL-2 % Control (1) ([2]; 10 uM): 42.89%
- IL-2 [ ]pg/ml (2) ([2]; 10 uM): 63.80 pg/mL
- IL-2 % Control (2) ([2]; 10 uM): 97.70%
- IL-2 [ ]pg/ml (3) ([2]; 10 uM): 70.72 pg/mL
- IL-2 % Control (3) ([2]; 10 uM): 53.76%
- IL-2 [ ]pg/ml (1) ([2]; 30 uM): 16.25 pg/mL
- IL-2 % Control (1) ([2]; 30 uM): 79.66%
- IL-2 [ ]pg/ml (2) ([2]; 30 uM): 5.75 pg/mL
- IL-2 % Control (2) ([2]; 30 uM): 8.81%
- IL-2 [ ]pg/ml (3) ([2]; 30 uM): 6.69 pg/mL
- IL-2 % Control (3) ([2]; 30 uM): 5.08%
- IL-2 [ ]pg/ml (1) ([2]; 100 uM): -10.40 pg/mL
- IL-2 % Control (1) ([2]; 100 uM): −50.98%
- IL-2 [ ]pg/ml (2) ([2]; 100 uM): -13.05 pg/mL
- IL-2 % Control (2) ([2]; 100 uM): −19.98%
- IL-2 [ ]pg/ml (3) ([2]; 100 uM): 0.28 pg/mL
- IL-2 % Control (3) ([2]; 100 uM): 0.21%
- effect on oxazolone mouse ear swelling (Balb/C mice [3]): no significant effect

Structure (SMILES): O[C@H]1c2ccccc2C[C@]1(Cc1ccccc1)C1=Cc2ccccc2C1 (mixture of isomers) [Compound 6, (S,S and RR)2-Benzyl-2,3-dihydro-1H,1′H-2,2′-biinden-1-ol]
- SRBC paw swelling (CD-1 mice): 52%
- inhibition of DAI in DSS-induced colitis (Balb/C mice [1]): significant (P<0.01) inhibition
- effect on DSS-induced weight loss (Balb/C mice [1]; 5% DSS colitis, 30 mg/kg p.o. (FIG. 8)): ameliorated
- IL2 release from Jurkat cells [2]: inhibited IL2 release
- IL-2 [ ]pg/ml (1) ([2]; 0.3 uM): 63.72 pg/mL
- IL-2 % Control (1) ([2]; 0.3 uM): 87.26%
- IL-2 [ ]pg/ml (2) ([2]; 0.3 uM): 74.50 pg/mL
- IL-2 % Control (2) ([2]; 0.3 uM): 114.09%
- IL-2 [ ]pg/ml (3) ([2]; 0.3 uM): 101.75 pg/mL
- IL-2 % Control (3) ([2]; 0.3 uM): 77.34%
- IL-2 [ ]pg/ml (1) ([2]; 1 uM): 58.72 pg/mL
- IL-2 % Control (1) ([2]; 1 uM): 80.41%
- IL-2 [ ]pg/ml (2) ([2]; 1 uM): 51.60 pg/mL
- IL-2 % Control (2) ([2]; 1 uM): 79.02%
- IL-2 [ ]pg/ml (3) ([2]; 1 uM): 112.44 pg/mL
- IL-2 % Control (3) ([2]; 1 uM): 85.47%
- IL-2 [ ]pg/ml (1) ([2]; 3 uM): 47.83 pg/mL
- IL-2 % Control (1) ([2]; 3 uM): 65.50%
- IL-2 [ ]pg/ml (2) ([2]; 3 uM): 29.15 pg/mL
- IL-2 % Control (2) ([2]; 3 uM): 44.64%
- IL-2 [ ]pg/ml (3) ([2]; 3 uM): 104.44 pg/mL
- IL-2 % Control (3) ([2]; 3 uM): 79.39%
- IL-2 [ ]pg/ml (1) ([2]; 10 uM): 27.72 pg/mL
- IL-2 % Control (1) ([2]; 10 uM): 37.96%
- IL-2 [ ]pg/ml (2) ([2]; 10 uM): 36.15 pg/mL
- IL-2 % Control (2) ([2]; 10 uM): 55.36%
- IL-2 [ ]pg/ml (3) ([2]; 10 uM): 75.19 pg/mL
- IL-2 % Control (3) ([2]; 10 uM): 57.15%
- IL-2 [ ]pg/ml (1) ([2]; 30 uM): 4.72 pg/mL
- IL-2 % Control (1) ([2]; 30 uM): 6.47%
- IL-2 [ ]pg/ml (2) ([2]; 30 uM): 47.60 pg/mL
- IL-2 % Control (2) ([2]; 30 uM): 72.89%
- IL-2 [ ]pg/ml (3) ([2]; 30 uM): 16.47 pg/mL
- IL-2 % Control (3) ([2]; 30 uM): 12.52%
- IL-2 [ ]pg/ml (1) ([2]; 100 uM): -10.11 pg/mL
- IL-2 % Control (1) ([2]; 100 uM): −13.85%
- IL-2 [ ]pg/ml (2) ([2]; 100 uM): -19.75 pg/mL
- IL-2 % Control (2) ([2]; 100 uM): −30.25%
- IL-2 [ ]pg/ml (3) ([2]; 100 uM): 1.97 pg/mL
- IL-2 % Control (3) ([2]; 100 uM): 1.50%
- effect on oxazolone mouse ear swelling (Balb/C mice [3]): no significant effect
